Experimental data: US5763430A, “Method of treating a viral infection by administering a steroid compound” (priority 1995, dated 1998)
Converted amounts (≈) assume the structure as drawn. “Also recorded” adds a separate entry of the source.

Tests used:
[1] = test system: human NHE1; experiment: internal pH changes in PS120 fibroblasts transfected with human NHE1; type: cell-based; details: 5 μg/ml, FIG. 2B
Protocol: (§1) PS120 fibroblasts transfected with rabbit: or human NHE1 were grown as described above.

[2] = test system: rabbit NHE1; experiment: internal pH changes in PS120 fibroblasts transfected with rabbit NHE1; type: cell-based; details: 5 μg/ml, FIG. 2A
Protocol: as §1

[3] = test system: bovine pulmonary endothelial cells; experiment: growth inhibition of endothelial cells in vitro (absorbance at 600 nm); type: cell-based; details: 1 μg/ml, FIG. 3A
[4] = test system: human epithelial cell line MCF 10A; experiment: growth inhibition of epithelial cells in vitro (absorbance at 600 nm); type: cell-based; details: 10 μg/ml, FIG. 3B
[5] = test system: human foreskin fibroblasts; experiment: growth inhibition of fibroblasts in vitro (absorbance at 600 nm); type: cell-based; details: 10 μg/ml, FIG. 3C
[6] = test system: human microvascular cells; experiment: inhibition of endothelial cell cord formation in vitro; type: cell-based
Method in brief: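 Human microvascular endothelial cells plated on collagen matrix with VEGF and basic FGF; compound effect on cord-like structure formation scored in a standard cord formation assay.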

[7] = test system: B16 melanoma; experiment: suppression of growth of B16 melanoma in C57B mice; type: in vivo, mouse
Protocol: The growth of B16 melanoma in C57B mice is dependent upon neovascularization.
Using the growth of B16 melanoma cells in C57B mice, a recognized model for the evaluation of inhibitors of angiogenesis on the growth of cancers, the effects of subcutaneous, intraperitoneal and oral administration of squalamine were evaluated.
Based on the idea that tumor growth involves both the clonal expansion of a malignant cell along with the development of a supporting vascular supply, a combination of compound 1436 with squalamine was tested to determine whether it would achieve a synergistic effect on solid tumor growth. This concept was evaluated in the B16 melanoma model.
Animals were implanted with B16 melanoma followed by treatment with compound 1436 or 1256 administered in a combined schedule or separately. […] Thus, a combination of these two compounds achieves a therapeutic benefit in tumors dependent on neovascularization that may prevent metastatic spread.

[8] = test system: melanoma 1205Lu; experiment: suppression of growth of human melanoma in immunocompromised (RAG-1) mice; type: in vivo, human melanoma in mouse; details: FIG. 5, listed as Squalamine
From the text: As apparent from FIG. 5, melanoma 1205Lu develops aggressively in RAG-1 mice after implantation.

[9] = mouse IV PK study; type: in vivo; details: i.v., mouse blood stream, HPLC
Protocol: To assess clearance, a mouse IV PK study was performed for compound 319 and squalamine. The compound was administered i.v. and blood samples were taken every 10 minutes. The concentration of the administered steroid was determined by HPLC analysis.

[10] = test system: Murine B16 melanoma; experiment: growth inhibition in vitro; type: cell-based; details: except at very high concentrations
From the text: As set forth in Table 7 below, all malignant tumors evaluated in tissue culture, endothelial cells and vascular smooth muscle cells were sensitive to inhibition. Thus, compound 1436 has application in the control of growth factor dependent proliferation of many types of tissue.

[11] = test system: human coronary artery smooth muscle; experiment: proliferation of human coronary artery smooth muscle in vitro; type: cell-based; details: FIG. 15
From the text: Aminosterols of the invention may also have utility in inhibiting the growth factor mediated proliferation of smooth muscle within the artery. Following coronary angioplasty, reocclusion commonly occurs, secondary to reparative proliferation of the vascular smooth muscle within the wall of the surgically manipulated blood vessel. This process generally takes place over the course of 7-10 days. To evaluate whether an agent could prevent the growth factor mediated proliferation of smooth muscle within the artery, compound 1436 was evaluated in vitro for its effect on the proliferation of human coronary artery smooth muscle. Results for compound 1436 are shown in FIG. 13, and those for squalamine are shown in FIG. 14, with FIG. 15 being a composite logarithmic plot.

[12] = test system: C. albicans; experiment: antibiotic activity (MIC); type: cell-based; details: Candida albicans; C. albicans; read-out: MIC
From the text: (§2) Thus, it is possible to achieve an antimicrobial steroid with or without squalamine-like pharmacological activity.

[13] = test system: E. coli; experiment: antibiotic activity (MIC); type: cell-based; details: Escherichia coli; E. coli; read-out: MIC
From the text: as §2

[14] = test system: P. aerug; experiment: antibiotic activity (MIC); type: cell-based; details: P. aerug; read-out: MIC
From the text: as §2

[15] = test system: S. aureus; experiment: antibiotic activity (MIC); type: cell-based; details: Staphylococcus aureus; S. aureus; read-out: MIC
From the text: as §2

[16] = test system: stage 59-60 Xenopus tadpole; experiment: Xenopus tadpole assay; details: 10 μg/ml; for tadpole response: about 1 hour
[17] = test system: human lymphocytes; experiment: inhibition of mitogen (PHA)-stimulated growth of human T-cells; details: 10 μg/ml
Protocol: Specific assays were used to identify steroids with a particular biological activity, such as an assay for inhibition of mitogen-stimulated growth of human T-cells.
Human heparinized blood, freshly collected, was introduced into tissue culture flasks containing 10 μg/ml phytohaemagglutinin (PHA) in RPMI medium with 10% FCS. Various purified steroids were introduced subsequently at concentrations of 1, 5, and 10 μg/ml. Cultures were incubated for 72 hours, after which time colcemid was added to 1 μg/ml. Cultures were maintained for an additional 2 hours, and cells collected. Miotic figures were estimated using standard cytochemical techniques, following Giemsa staining.

[18] = molecular target: rabbit NHE3 (Oryctolagus cuniculus, UniProt P26432)
Sequence of rabbit NHE3 (P26432 30-832): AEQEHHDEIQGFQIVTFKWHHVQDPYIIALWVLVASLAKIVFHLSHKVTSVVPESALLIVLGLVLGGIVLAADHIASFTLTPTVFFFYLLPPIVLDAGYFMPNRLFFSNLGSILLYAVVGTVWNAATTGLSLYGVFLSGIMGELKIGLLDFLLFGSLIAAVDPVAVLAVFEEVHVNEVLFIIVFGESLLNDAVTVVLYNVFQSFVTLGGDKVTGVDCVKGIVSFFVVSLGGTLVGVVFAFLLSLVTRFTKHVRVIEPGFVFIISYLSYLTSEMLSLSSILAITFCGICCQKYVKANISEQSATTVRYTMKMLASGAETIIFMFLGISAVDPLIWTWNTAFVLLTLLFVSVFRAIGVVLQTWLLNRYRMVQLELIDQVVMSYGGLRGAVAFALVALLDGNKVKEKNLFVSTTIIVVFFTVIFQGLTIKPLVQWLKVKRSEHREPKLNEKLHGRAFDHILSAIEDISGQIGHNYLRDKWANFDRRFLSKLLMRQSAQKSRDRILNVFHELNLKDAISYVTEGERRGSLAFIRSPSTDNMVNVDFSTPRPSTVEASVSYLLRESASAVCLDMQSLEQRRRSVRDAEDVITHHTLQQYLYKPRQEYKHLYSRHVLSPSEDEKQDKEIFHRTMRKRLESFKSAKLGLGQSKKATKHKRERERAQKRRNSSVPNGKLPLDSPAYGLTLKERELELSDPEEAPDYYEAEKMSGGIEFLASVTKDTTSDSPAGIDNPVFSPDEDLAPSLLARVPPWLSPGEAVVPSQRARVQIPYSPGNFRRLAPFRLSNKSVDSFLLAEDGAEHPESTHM
Protocol: Internal pH was measured either following acid loading or in the absence of an acid-loading challenge, with the results shown in FIGS. 1A and 1B.
Specifically, PS120 fibroblasts transfected with rabbit NHE3 were grown in supplemented Dulbecco's-modified Eagle's medium as described by Levine et al., J. Biol. Chem. 268, 1993, 25527-25535. […] For cells not acid-preloaded, the actual internal pH value was monitored as a function of time following addition of squalamine, with the results depicted in FIG. 1B.
PS120 fibroblasts transfected with rabbit NHE3 were grown and acid preloaded by exposure to 40 mM NH4 Cl as described above in conjunction with FIGS. 1A and 1B. Internal cellular pH changes expressed as the rate of pH recovery as a function of restored extracellular sodium ion concentration following exposure to 10 μg/ml of the compound were assayed with the fluorescent dye BCECF-AM as described above.

[19] = test system: human umbilical venous endothelial cells; experiment: LPS-induced neutrophil adherence to human umbilical venous endothelial cells; details: 10 μg, 1.0 μg, or 0.1 μg; activated human endothelial cells
Protocol: In these experiments, approximately 2×10^5 human umbilical venous cells (passage 2-6) were plated per well. The cells were grown in serum-free media overnight. For induction, either TNF-α (40 ng/ml) was added to endothelial cells for 6 hours prior to adding neutrophils or LPS (100 ng/ml) was added for 4-6 hours. […] After activation of the endothelial cells, approximately 50×10^6 neutrophils were added per well. The plates were gently rocked for 30 minutes at room temperature, followed by removal of the media and washing in serum-free media three times and then photographing of each well. […] A monoclonal Ab to ICAM-1 was a positive control.

Compound: CC(C)[C@@H](CC[C@@H](C)[C@H]1CC[C@H]2[C@@H]3[C@H](O)C[C@H]4C[C@@H](NCCCNCCCCN)CC[C@]4(C)[C@H]3CC[C@]12C)OS(=O)(=O)O [Compound 1256]
- inhibition of human NHE1 [1]: no inhibitory activity
- inhibition of rabbit NHE1 [2]: no inhibitory activity
- growth of bovine pulmonary artery endothelial cells [3]: inhibited the growth
- growth of epithelial cells [4]: no effect on the growth
- growth of fibroblasts [5]: no effect on the growth
- minimal effective concentration ([6]; Homo sapiens, Endothelial cell, Table II, read-out: Minimum Effective Concentration, Cord Formation): 0.01 to 0.1 µg/mL
- cell viability or proliferation ([6]; at cord-inhibiting concentrations): does not appear to profoundly affect cell viability or proliferation
- impact on tumor volume ([7]; 5 mg/kg/day alone, FIG. 12): no significant impact on tumor volume
- body weight and hematologic parameters ([7]; mouse, in vivo): no significant depression
- tumor volume ([7]; subcutaneous, intraperitoneal or oral, FIGS. 4A-4C): dose-dependent suppression of tumor volume
- growth of melanoma 1205Lu [8]: suppress the growth of melanoma 1205Lu in RAG-1 mice in a dose-dependent fashion; also recorded: clear suppression of tumor growth in a dose-dependent fashion
- half-life [9]: ~35 min
- cytostatic activity against B16 in culture [10]: minimal cytostatic activity
- growth of human coronary artery smooth muscle [11]: suppress in vitro the growth
- MIC [12]: 8 µg/mL (≈ 12.7 µM)
- MIC [13]: 2 to 4 µg/mL (≈ 3.18 to 6.37 µM)
- MIC [14]: 16 µg/mL (≈ 25.5 µM)
- MIC [15]: 0.5 to 1 µg/mL (≈ 0.796 to 1.59 µM)
- time to death of tadpole [16]: ≤ 2 h
- tadpole response [16]: Vascular occlusion in fine capillaries of tail. No effect on vascular flow through hands or feet
- tadpole response ([16]; listed as squalamine): blood flow through the capillaries of the tail shut down; also recorded: common vascular occlusive effect
- inhibition of blast transformation [17]: Some effect
- inhibition of NHE3 (rate of pH recovery) ([18]; 5 μg/ml squalamine, FIGS. 1A, 1B): inhibited NHE3 with respect to proton concentration at both Km and Vmax levels
- resting pH of cells ([18]; 5 μg/ml, FIG. 1B, not acid-preloaded): the resting pH of these cells was also inhibited
- inhibition of neutrophil adherence [19]: no inhibition
